This note sets out measurements from the supplement of paper PMC10307832.

Holding throughout (assay): relative viability (nuclei count vs DMSO), 5 days (fraction); higher = more cells survive
Compound in the experiment “CX-5461 + Luminespib”: Cc1cnc(CNC(=O)c2c(=O)c3ccc(N4CCCN(C)CC4)nc3n3c2sc2ccccc23)cn1 [CX-5461] + CCNC(=O)c1noc(-c2cc(C(C)C)c(O)cc2O)c1-c1ccc(CN2CCOCC2)cc1 [Luminespib] (partner 0.01 µM)
In outline:
(§1)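 Five library-drug doses in √10 steps were combined with a fixed anchor-drug dose, or a single drug was given alone, by pin tool to lung cancer cell lines in 1536-well plates the day after seeding. Nuclei were stained and counted after 5 days. Relative viability is the nuclei count in treated wells over that in vehicle wells, taken as the median of duplicate plates.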

Compound in the experiment “IMD-0354 + Linsitinib”: O=C(Nc1cc(C(F)(F)F)cc(C(F)(F)F)c1)c1cc(Cl)ccc1O [IMD-0354] + C[C@]1(O)C[C@@H](c2nc(-c3ccc4ccc(-c5ccccc5)nc4c3)c3c(N)nccn32)C1 [Linsitinib] (partner 1 µM)
The gist of the method: as §1

Compound in the experiment “IMD-0354 + Decitabine”: O=C(Nc1cc(C(F)(F)F)cc(C(F)(F)F)c1)c1cc(Cl)ccc1O [IMD-0354] + Nc1ncn([C@H]2C[C@H](O)[C@@H](CO)O2)c(=O)n1 [Decitabine] (partner 2 µM)
In outline: as §1

Compound in the experiment “IMD-0354 + Trametinib”: O=C(Nc1cc(C(F)(F)F)cc(C(F)(F)F)c1)c1cc(Cl)ccc1O [IMD-0354] + CC(=O)Nc1cccc(-n2c(=O)n(C3CC3)c(=O)c3c(Nc4ccc(I)cc4F)n(C)c(=O)c(C)c32)c1 [Trametinib] (partner 0.02 µM)
The gist of the method:
as §1

Turning to NCI-H3122, the relative viability was determined as 0.0935 with CX-5461 + Luminespib (first compound 0.01 µM); 0.0696 in the experiment with CX-5461 + Luminespib (first compound 0.03162 µM); 0.096 with CX-5461 + Luminespib (first compound 0.1 µM); 0.0801 with CX-5461 + Luminespib (first compound 0.3162 µM); 0.0781 in the experiment with CX-5461 + Luminespib (first compound 1 µM); 1.06 with IMD-0354 + Linsitinib (first compound 0.04 µM). In addition, the relative viability was 1.12 with IMD-0354 + Linsitinib (first compound 0.1265 µM); 0.742 with IMD-0354 + Linsitinib (first compound 0.4 µM); 0.573 with IMD-0354 + Linsitinib (first compound 1.265 µM); 0.15 with IMD-0354 + Linsitinib (first compound 4 µM); 0.46 in the experiment with IMD-0354 + Decitabine (first compound 0.04 µM); 0.455 with IMD-0354 + Decitabine (first compound 0.1265 µM). Also, the relative viability in the experiment with IMD-0354 + Decitabine (first compound 0.4 µM) came out at 0.408; with IMD-0354 + Decitabine (first compound 1.265 µM) it was 0.469; with IMD-0354 + Decitabine (first compound 4 µM), 0.227; with IMD-0354 + Trametinib (first compound 0.04 µM), 0.215; with IMD-0354 + Trametinib (first compound 0.1265 µM), 0.223; with IMD-0354 + Trametinib (first compound 0.4 µM), 0.178. For the same cell line, the relative viability with IMD-0354 + Trametinib (first compound 1.265 µM) was determined as 0.252; in the experiment with IMD-0354 + Trametinib (first compound 4 µM) it was 0.147.
Turning to PC-3 [JPC-3], the relative viability in the experiment with CX-5461 + Luminespib (first compound 0.01 µM) is 0.726; with CX-5461 + Luminespib (first compound 0.03162 µM), 0.708; in the experiment with CX-5461 + Luminespib (first compound 0.1 µM) it was 0.62; in the experiment with CX-5461 + Luminespib (first compound 0.3162 µM), 0.635; with CX-5461 + Luminespib (first compound 1 µM), 0.721; with IMD-0354 + Linsitinib (first compound 0.04 µM) it was 0.975. In addition, the relative viability stood at 0.945 with IMD-0354 + Linsitinib (first compound 0.1265 µM); 0.826 with IMD-0354 + Linsitinib (first compound 0.4 µM); 0.734 with IMD-0354 + Linsitinib (first compound 1.265 µM); 0.251 in the experiment with IMD-0354 + Linsitinib (first compound 4 µM); 0.984 with IMD-0354 + Decitabine (first compound 0.04 µM); 0.813 with IMD-0354 + Decitabine (first compound 0.1265 µM). In addition, the relative viability came to 0.756 with IMD-0354 + Decitabine (first compound 0.4 µM); 0.481 with IMD-0354 + Decitabine (first compound 1.265 µM); 0.336 in the experiment with IMD-0354 + Decitabine (first compound 4 µM); 0.825 in the experiment with IMD-0354 + Trametinib (first compound 0.04 µM); 0.676 with IMD-0354 + Trametinib (first compound 0.1265 µM); 0.65 in the experiment with IMD-0354 + Trametinib (first compound 0.4 µM). Moreover, the figures for the relative viability with IMD-0354 + Trametinib (first compound 1.265 µM) and with IMD-0354 + Trametinib (first compound 4 µM) were 0.399 and 0.267, respectively.
With PC-14, the relative viability with CX-5461 + Luminespib (first compound 0.01 µM) is 0.14; in the experiment with CX-5461 + Luminespib (first compound 0.03162 µM), 0.163; with CX-5461 + Luminespib (first compound 0.1 µM), 0.222; in the experiment with CX-5461 + Luminespib (first compound 0.3162 µM) it was 0.204; with CX-5461 + Luminespib (first compound 1 µM) it was 0.124; with IMD-0354 + Linsitinib (first compound 0.04 µM) it was 1.01. The relative viability in the experiment with IMD-0354 + Linsitinib (first compound 0.1265 µM) stood at 0.841; with IMD-0354 + Linsitinib (first compound 0.4 µM), 0.604; in the experiment with IMD-0354 + Linsitinib (first compound 1.265 µM), 0.403; in the experiment with IMD-0354 + Linsitinib (first compound 4 µM), 0.175; in the experiment with IMD-0354 + Decitabine (first compound 0.04 µM), 0.249; with IMD-0354 + Decitabine (first compound 0.1265 µM) it was 0.22. Besides, the relative viability was determined as 0.142 in the experiment with IMD-0354 + Decitabine (first compound 0.4 µM); 0.0934 with IMD-0354 + Decitabine (first compound 1.265 µM); 0.0785 with IMD-0354 + Decitabine (first compound 4 µM); 0.945 with IMD-0354 + Trametinib (first compound 0.04 µM); 0.826 with IMD-0354 + Trametinib (first compound 0.1265 µM); 0.301 with IMD-0354 + Trametinib (first compound 0.4 µM). In addition, the relative viability was 0.359 in the experiment with IMD-0354 + Trametinib (first compound 1.265 µM) and 0.109 with IMD-0354 + Trametinib (first compound 4 µM).
In the case of RERF-LC-KJ, the relative viability came to 1.28 in the experiment with CX-5461 + Luminespib (first compound 0.01 µM); 1.24 with CX-5461 + Luminespib (first compound 0.03162 µM); 1.19 with CX-5461 + Luminespib (first compound 0.1 µM); 1.27 with CX-5461 + Luminespib (first compound 0.3162 µM); 0.687 with CX-5461 + Luminespib (first compound 1 µM); 0.948 with IMD-0354 + Linsitinib (first compound 0.04 µM). The relative viability with IMD-0354 + Linsitinib (first compound 0.1265 µM) came to 0.944; in the experiment with IMD-0354 + Linsitinib (first compound 0.4 µM) it was 0.66; with IMD-0354 + Linsitinib (first compound 1.265 µM) it was 0.298; with IMD-0354 + Linsitinib (first compound 4 µM), 0.208; with IMD-0354 + Decitabine (first compound 0.04 µM), 0.901; with IMD-0354 + Decitabine (first compound 0.1265 µM) it was 0.64. Besides, the relative viability with IMD-0354 + Decitabine (first compound 0.4 µM) is 0.493; with IMD-0354 + Decitabine (first compound 1.265 µM), 0.183; with IMD-0354 + Decitabine (first compound 4 µM) it was 0.166; in the experiment with IMD-0354 + Trametinib (first compound 0.04 µM) it was 1.02; in the experiment with IMD-0354 + Trametinib (first compound 0.1265 µM) it was 0.931; in the experiment with IMD-0354 + Trametinib (first compound 0.4 µM), 0.663. In addition, the relative viability stood at 0.557 with IMD-0354 + Trametinib (first compound 1.265 µM) and 0.174 with IMD-0354 + Trametinib (first compound 4 µM).
Consider SK-LU-1, for which the relative viability with CX-5461 + Luminespib (first compound 0.01 µM) was 0.22; in the experiment with CX-5461 + Luminespib (first compound 0.03162 µM), 0.185; in the experiment with CX-5461 + Luminespib (first compound 0.1 µM), 0.204; with CX-5461 + Luminespib (first compound 1 µM), 0.166; with IMD-0354 + Linsitinib (first compound 0.04 µM) it was 1.41; with IMD-0354 + Linsitinib (first compound 0.1265 µM) it was 0.863. Further, the relative viability amounted to 0.621 with IMD-0354 + Linsitinib (first compound 0.4 µM); 0.24 with IMD-0354 + Linsitinib (first compound 1.265 µM); 0.264 in the experiment with IMD-0354 + Linsitinib (first compound 4 µM); 0.775 with IMD-0354 + Decitabine (first compound 0.04 µM); 0.657 with IMD-0354 + Decitabine (first compound 0.1265 µM); 0.441 with IMD-0354 + Decitabine (first compound 0.4 µM). Further, the relative viability with IMD-0354 + Decitabine (first compound 1.265 µM) turned out to be 0.264; with IMD-0354 + Decitabine (first compound 4 µM), 0.328; with IMD-0354 + Trametinib (first compound 0.04 µM), 0.447; with IMD-0354 + Trametinib (first compound 0.1265 µM), 0.514; with IMD-0354 + Trametinib (first compound 0.4 µM), 0.41; in the experiment with IMD-0354 + Trametinib (first compound 1.265 µM), 0.239. For the same cell line, the relative viability in the experiment with IMD-0354 + Trametinib (first compound 4 µM) was 0.269.
For the cell line SK-MES-1, the relative viability with CX-5461 + Luminespib (first compound 0.01 µM) came out at 0.801; with CX-5461 + Luminespib (first compound 0.03162 µM), 0.975; with CX-5461 + Luminespib (first compound 0.1 µM), 0.695; with CX-5461 + Luminespib (first compound 0.3162 µM), 0.735; with CX-5461 + Luminespib (first compound 1 µM), 0.304; in the experiment with IMD-0354 + Linsitinib (first compound 0.04 µM) it was 1.05. Also, the relative viability with IMD-0354 + Linsitinib (first compound 0.1265 µM) stood at 1.08; in the experiment with IMD-0354 + Linsitinib (first compound 0.4 µM) it was 0.762; with IMD-0354 + Linsitinib (first compound 1.265 µM) it was 0.719; with IMD-0354 + Linsitinib (first compound 4 µM), 0.221; with IMD-0354 + Decitabine (first compound 0.04 µM), 0.387; with IMD-0354 + Decitabine (first compound 0.1265 µM), 0.386. Besides, the relative viability in the experiment with IMD-0354 + Decitabine (first compound 0.4 µM) is 0.306; with IMD-0354 + Decitabine (first compound 1.265 µM), 0.176; with IMD-0354 + Decitabine (first compound 4 µM), 0.205; in the experiment with IMD-0354 + Trametinib (first compound 0.04 µM), 0.658; with IMD-0354 + Trametinib (first compound 0.1265 µM), 0.612; in the experiment with IMD-0354 + Trametinib (first compound 0.4 µM), 0.49. The relative viability with IMD-0354 + Trametinib (first compound 1.265 µM) is 0.401; in the experiment with IMD-0354 + Trametinib (first compound 4 µM) it was 0.203.
As to SW 1573, the relative viability stood at 0.295 in the experiment with CX-5461 + Luminespib (first compound 0.01 µM); 0.163 with CX-5461 + Luminespib (first compound 0.03162 µM); 0.164 in the experiment with CX-5461 + Luminespib (first compound 0.1 µM); 0.187 in the experiment with CX-5461 + Luminespib (first compound 0.3162 µM); 0.0965 with CX-5461 + Luminespib (first compound 1 µM); 0.764 in the experiment with IMD-0354 + Linsitinib (first compound 0.04 µM). In addition, the relative viability with IMD-0354 + Linsitinib (first compound 0.1265 µM) was found to be 0.697; with IMD-0354 + Linsitinib (first compound 0.4 µM), 0.589; with IMD-0354 + Linsitinib (first compound 1.265 µM) it was 0.493; with IMD-0354 + Linsitinib (first compound 4 µM), 0.102; in the experiment with IMD-0354 + Decitabine (first compound 0.04 µM), 0.814; in the experiment with IMD-0354 + Decitabine (first compound 0.1265 µM), 0.588. Besides, the relative viability came out at 0.245 in the experiment with IMD-0354 + Decitabine (first compound 0.4 µM); 0.115 in the experiment with IMD-0354 + Decitabine (first compound 1.265 µM); 0.0911 in the experiment with IMD-0354 + Decitabine (first compound 4 µM); 0.631 with IMD-0354 + Trametinib (first compound 0.04 µM); 0.554 with IMD-0354 + Trametinib (first compound 0.1265 µM); 0.384 with IMD-0354 + Trametinib (first compound 0.4 µM). Besides, the results for the relative viability with IMD-0354 + Trametinib (first compound 1.265 µM) and in the experiment with IMD-0354 + Trametinib (first compound 4 µM) were 0.107 and 0.105, respectively.
